Source: patent EP3064205A1, “Therapeutic use of isomeric forms of 2-(4-chlorophenyl)quinolin-4-yl)(piperidin-2-yl)methanol” (Glionova AB, priority 2015, dated 2016)
Read-outs that look alike come from different tables or passages of the source.

Columns and labels:
Assay in all cases: 3D clonogenic assay (PDX)
Assay type in all cases: cell-based, human
BXF 1228 = details: BXF 1228, Bladder; for IC50: Homo sapiens
Experimental: (§1) The anti-tumor efficacy of S1 in the patient-derived tumor xenograft (PDX) tumor panel was assessed, where the efficacy of S1 in PDX tumor panel in the 96-well format, in 10 concentrations in duplicate was performed. Colony formation of tumor cell suspensions in a soft-agar matrix was observed and quantified. The output is IC50 values and dose response-relationships based on number of colonies in control and treatment wells, as identified by an automated image analysis algorithm. Stock solution of S1 was prepared in 100% DMSO at 10 mM concentration (stored at -20°C) and reused for each experiment. Compound final test concentrations: Dilution series ½ i.e.: 50µM, 15, 5, 1.5, 0.5, 0.15, 0.05, 0.015, 0.005 and 0.0015.
(§2) Tumor xenografts (also referred to as patient-derived tumor xenografts) were passaged as subcutaneous xenografts in NMRI nu/nu mice. Tumor xenograft were removed from mice under sterile conditions, mechanically disaggregated and subsequently incubated with an enzyme cocktail consisting of collagenase type IV (41 U/mL), DNase I (125 U/mL), hyaluronidase type III (100 U/mL) and dispase II (1.0 U/mL) in RPMI 1640 medium at 37°C for 60 - 120 minutes. Cells were passed through sieves of 100 µm and 40 µm mesh size and washed with RPMI 1640 medium. The percentage of viable cells was determined in a Neubauer-hemocytometer using trypan blue exclusion. Aliquots of the cells were frozen down, and stored in liquid nitrogen.
(§3) The clonogenic assay test was carried out in 96 well plate format. For each test a frozen aliquot of tumor cells prepared from tumor xenografts was thawed and assay plates were prepared as follows: each test well contained 3 layers of equal volume, 2 layers of semi-solid medium (bottom and top layer), and one layer of medium supernatant, with or without test compound. The bottom layer consisted of 0.05 mL/well Iscove's Modified Dulbecco's Medium (Invitrogen), supplemented with 20% (v/v) fetal calf serum (Sigma), 0.01% (w/v) gentamicin (Invitrogen) and 0.75% (w/v) agar (BD Biosciences). Tumor cells were added to 0.05 mL of the same culture medium supplemented with 0.4% (w/v) agar and plated onto the bottom layer. After 24 h, test compounds were added after serial dilution in DMSO and transfer in cell culture medium, and left on the cells for the duration of the experiment (continuous exposure, 0.05 mL drug overlay). Every dish included six untreated control wells and drug-treated groups in duplicate at 10 concentrations. Cultures were incubated at 37 °C and 7.5% CO2 in a humidified atmosphere for 8 to 13 days and monitored closely for colony growth using an inverted microscope. Within this period, ex vivo tumor growth lead to the formation of colonies with a diameter of >50 µm. At the time of maximum colony formation, counts were performed with an automatic image analysis system. 24 h prior to evaluation, vital colonies were stained with a sterile aqueous solution of 2-(4-iodophenyl)-3-(4-nitrophenyl)-5-phenyltetrazolium chloride (1 mg/mL, 100 µL/well). Sigmoidal concentration-response curves were fitted to the data points obtained for each tumor model using 4 parameter non-linear curve fit (Oncotest Warehouse Software). IC50 values are reported as relative IC50 values, being the concentration of test compound that give a response (inhibition of colony formation/viability) half way between the top and bottom plateau of the sigmoidal concentration-response curve (inflection point of the curve), or as absolute IC50 values, being the concentration of test compound at the intersection of the concentration-response curves with T/C = 50%. For calculation of mean IC50 values the geometric mean was used. Results are presented as mean graph plots or heat maps (individual IC50 values relative to the geometric mean IC50 value) over all cell lines as tested.

BXF 1258 = details: BXF 1258, Bladder; for IC50: Homo sapiens
Experimental: as §1, §2, §3

BXF 1352 = details: BXF 1352, Bladder; for IC50: Homo sapiens
Experimental: as §1, §2, §3

CXF 243 = details: CXF 243, Colorectal; for IC50: Homo sapiens
Experimental: as §1, §2, §3

CXF 975 = details: CXF 975, Colorectal; for IC50: Homo sapiens
Experimental: as §1, §2, §3

GXF 97 = details: GXF 97, Gastric; for IC50: Homo sapiens
Experimental: as §1, §2, §3

LXFA 289 = details: LXFA 289, Lung Adeno; for IC50: Homo sapiens
Experimental: as §1, §2, §3

MAXF 1322 = details: MAXF 1322, Breast; for IC50: Homo sapiens
Experimental: as §1, §2, §3

PRXF MRI-H-1579 = details: PRXF MRI-H-1579, Prostate; for IC50: Homo sapiens
Experimental: as §1, §2, §3

PRXF PC-3M = details: Prostate; for IC50: Homo sapiens
Experimental: as §1, §2, §3

RXF 486 = details: RXF 486, Renal; for IC50: Homo sapiens
Experimental: as §1, §2, §3

SXFS 627 = details: SXFS 627, Sarcoma Soft Tissue; for IC50: Homo sapiens
Experimental: as §1, §2, §3

IC50 (BXF 1228; read-out: abs. IC50): 8.12 µM
IC50 (BXF 1228; read-out: rel. IC50): 6.67 µM
IC50 (BXF 1258; read-out: abs. IC50): 7.47 µM
IC50 (BXF 1258; read-out: rel. IC50): 2.54 µM
IC50 (BXF 1352; read-out: abs. IC50): 18.5 µM
IC50 (BXF 1352; read-out: rel. IC50): 19 µM
IC50 (CXF 243; read-out: abs. IC50): 9.22 µM
IC50 (CXF 243; read-out: rel. IC50): 8.63 µM
IC50 (CXF 975; read-out: abs. IC50): 8.75 µM
IC50 (CXF 975; read-out: rel. IC50): 8.62 µM
IC50 (GXF 97; read-out: abs. IC50): 6.21 µM
IC50 (GXF 97; read-out: rel. IC50): 5.71 µM
IC50 (LXFA 289; read-out: abs. IC50): 45.4 µM
IC50 (LXFA 289; read-out: rel. IC50): 39.3 µM
IC50 (MAXF 1322; read-out: abs. IC50): 4.77 µM
IC50 (MAXF 1322; read-out: rel. IC50): 3.82 µM
IC50 (PRXF MRI-H-1579; read-out: abs. IC50): 8.94 µM
IC50 (PRXF MRI-H-1579; read-out: rel. IC50): 8.76 µM
IC50 (PRXF PC-3M; read-out: abs. IC50): 16.9 µM
IC50 (PRXF PC-3M; read-out: rel. IC50): 16.9 µM
IC50 (RXF 486; read-out: abs. IC50): 12.8 µM
IC50 (RXF 486; read-out: rel. IC50): 12.7 µM
IC50 (SXFS 627; read-out: abs. IC50): 5.84 µM
IC50 (SXFS 627; read-out: rel. IC50): 5.74 µM
SMILES: O[C@H](c1cc(-c2ccc(Cl)cc2)nc2ccccc12)[C@@H]1CCCCN1 [S1, (R)-(2-(4-chlorophenyl)quinolin-4-yl)((S)-piperidin-2-yl)methanol]
b (bottom plateau of concentration-effect curve) (BXF 1228): 22
t (top plateau of concentration-effect curve) (BXF 1228): 98
b (bottom plateau of concentration-effect curve) (BXF 1258): 44
t (top plateau of concentration-effect curve) (BXF 1258): 103
b (bottom plateau of concentration-effect curve) (BXF 1352): 0
t (top plateau of concentration-effect curve) (BXF 1352): 97
b (bottom plateau of concentration-effect curve) (CXF 243): 46
t (top plateau of concentration-effect curve) (CXF 243): 102
b (bottom plateau of concentration-effect curve) (CXF 975): 19
t (top plateau of concentration-effect curve) (CXF 975): 105
b (bottom plateau of concentration-effect curve) (GXF 97): 20
t (top plateau of concentration-effect curve) (GXF 97): 97
b (bottom plateau of concentration-effect curve) (LXFA 289): 21
t (top plateau of concentration-effect curve) (LXFA 289): 94
b (bottom plateau of concentration-effect curve) (MAXF 1322): 21
t (top plateau of concentration-effect curve) (MAXF 1322): 93
b (bottom plateau of concentration-effect curve) (PRXF MRI-H-1579): 21
t (top plateau of concentration-effect curve) (PRXF MRI-H-1579): 112
b (bottom plateau of concentration-effect curve) (PRXF PC-3M): 3
t (top plateau of concentration-effect curve) (PRXF PC-3M): 98
b (bottom plateau of concentration-effect curve) (RXF 486): 5
t (top plateau of concentration-effect curve) (RXF 486): 97
b (bottom plateau of concentration-effect curve) (SXFS 627): 7
t (top plateau of concentration-effect curve) (SXFS 627): 96
